Results as given in patent US20100081661A1, “HEME OXYGENASE INHIBITORS, SCREENING METHODS FOR HEME OXYGENASE INHIBITORS AND METHODS OF USE OF HEME OXYGENASE INHIBITORS FOR ANTIMICROBIAL THERAPY” (UNIVERSITY OF MARYLAND, BALTIMORE, priority 2006, published 2010).
pKd: −log10 of the molar value. Read-outs that look alike come from different tables or passages of the source.

Assays:
[1] = target: T1, pa-HO (Pseudomonas aeruginosa, UniProt O69002); format: binding; conditions: for NMR sat. transfer: Table 2, paHO; for NMR pa-HO: Table 3A; as to NMR pa-HO: key: Shows binding by NMR method = +; Ambig = ambiguous
T1 sequence (O69002 1-198): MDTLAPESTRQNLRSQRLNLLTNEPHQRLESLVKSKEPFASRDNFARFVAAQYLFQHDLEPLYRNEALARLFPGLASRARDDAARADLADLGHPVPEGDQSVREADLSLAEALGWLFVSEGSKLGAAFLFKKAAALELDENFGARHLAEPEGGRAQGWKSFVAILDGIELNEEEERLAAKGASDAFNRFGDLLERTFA

[2] = test system: P. aeruginosa; assay: MIC50 for P. aeruginosa; format: cell-based, Pseudomonas aeruginosa; conditions: for minimum inhibition conc / MIC: Table 2; for MIC: read-out: minimum inhibition conc
[3] = target: T2, nm-HO (Neisseria meningitidis, UniProt Q9AH50); assay: biochemical; format: binding
T2 sequence (Q9AH50 1-209): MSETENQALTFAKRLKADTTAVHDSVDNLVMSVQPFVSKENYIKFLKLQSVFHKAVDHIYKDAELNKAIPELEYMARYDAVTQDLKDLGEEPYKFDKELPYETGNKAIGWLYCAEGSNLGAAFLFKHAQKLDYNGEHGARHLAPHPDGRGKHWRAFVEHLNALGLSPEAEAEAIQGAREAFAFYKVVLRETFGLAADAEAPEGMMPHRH

[4] = test system: P. aeruginosa MPA01; format: cell-based; conditions: 500 μM and above
[5] = test system: C. elegans; assay: C. elegans assay (infected worms); format: in vivo; conditions: for C. elegans: Table 3A, infected worms
[6] = target: T1, pa-HO; assay: biochemical; format: binding; conditions: for pKd: read-out: Fluorescence pa-HO Kd
[7] = target: T2, nm-HO; format: cell-based; parameters: key to E. coli assay biliverdin pigmentation: + biliverdin observed in cell pellet; − biliverdin not observed
[8] = Pseudomonas aeruginosa, Table 3B, P. aeruginosa, read-out: MIC 50
[9] = Pseudomonas aeruginosa, Table 3A, read-out: MIC 50
[10] = Table 2, colour of cell pellet (white = no biliverdin, green = biliverdin) or toxicity to cells
[11] = Table 3B, nm-HO in E. coli expression system
[12] = Table 4, target not named, values match nm-HO of Table 3A

Row | Structure (SMILES) | NMR sat. transfer [1] | NMR pa-HO [1] | minimum inhibition conc [2] | MIC 50 (ug/ml) ([2]; Table 3A) | MIC ([2]; Pseudomonas aeruginosa) | MIC50 [2, 9] | MIC50 ([2]; Table 3B, P. aeruginosa) | fluorescence binding [6] | E. coli assay [7, 10] | Biliverdin detection from E. coli Assay ([7]; Table 3A, pellet colour) | Biliverdin detection from E. coli Assay [7, 11] | other results
1 | Cn1c(=O)c(CC(=O)C(=O)O)nc2ccccc21 [Compound 152] | yes, bind paHO | + | no antibacterial activity | no antibact activity |  |  |  |  |  |  |  | MIC50 [2, 8]: > 1000 µg/mL
2 | Cc1cc(-c2ccc(F)cc2)nc2cc(C(=O)O)nn12 [Compound 85] | yes, bind paHO | + | no antibacterial activity | no antibact activity |  |  |  |  |  |  |  | MIC50 [2, 8]: > 1000 µg/mL
3 | O=C(Cc1ccc([N+](=O)O)cc1)N/N=C/c1ccc(O)cc1 [Compound 44] | Alias: CB-22 fluorescence binding: nd minimum inhibition conc: nd NMR sat. transfer: tested, ambiguous | Ambig |  |  |  |  |  |  |  |  |  | pKd [3]: 4.91
4 | O=C(O)/C=C\C(=O)Nc1ccc(Nc2ccccc2)cc1 [chembridge010392] |  |  |  |  |  |  |  |  |  |  |  | inhibitory effect in the presence of Fe(III)-pyoverdine [4]: slight inhibitory effect
5 | CC(N)c1ccc2ccccc2c1 (centres unmarked) [Compound 103] | yes, bind paHO | + |  |  | > 250 µg/mL | > 250 µg/mL | >250 µg/mL |  |  |  |  | 
6 | NCc1ccc2c3c(cccc13)C(=O)N2 [Compound 87] | yes, bind paHO | + |  |  | > 125 µg/mL | > 125 µg/mL | >125 µg/mL |  |  |  |  | C. elegans [5]: Inconclusive
7 | NCC(O)(c1ccc(Cl)cc1)c1ccc(Cl)cc1 [Compound 131] | yes, bind paHO | + |  |  | > 250 µg/mL | > 250 µg/mL | >250 µg/mL |  |  |  |  | 
8 | CC(=O)Oc1ccc(-c2cccc(C(=O)O)c2)cc1 [Compound 61] | yes, bind to paHO | + | no antibacterial activity | no antibact activity |  |  |  |  |  |  |  | 
9 | Cc1cc(C(=O)O)nn1-c1ccccc1 [Compound 115] | yes, bind paHO | + | no antibacterial activity | no antibact activity |  |  |  |  |  |  |  | MIC50 [2, 8]: > 1000 µg/mL
10 | NCC(=O)N(O)Cc1ccccc1 [Compound 127] | yes, bind paHO | + |  |  | > 1000 µg/mL | > 1000 µg/mL | >1000 µg/mL |  |  |  |  | 
11 | O=C(Cc1ccc(Cl)cc1)N/N=C/c1c[nH]c2ccccc12 [Compound 126] |  |  | no antibacterial activity | no antibact activity |  |  |  | yes | white pellet | White pellet | White pellet | pKd ([6]; Table 3A): 4.80; E. coli assay ([7]; Table 4): White pellet; MIC50 [2, 8]: > 1000 µg/mL; pKd [3]: 4.85; pKd [3, 12]: 4.85
12 | O=C1C=C(Nc2ccccc2O)c2ccccc2C1=O [Compound 114] |  |  |  |  |  |  |  | yes | toxic to cells | Toxic | Toxic | E. coli assay ([7]; Table 6): Toxic; pKd [3]: 4.54
13 | O=C(O)CCC(=O)Nc1ccc(Oc2ccccc2)cc1 [Compound 48] | do not bind paHO |  |  |  |  |  |  |  | white pellet |  |  | 
14 | Cl.N=C(N/N=C\c1cccnc1)N/N=C\c1cccnc1 [Compound 148] |  |  | no antibacterial activity | no antibact activity |  |  |  | Alias: CB-31 Compound 1 in manuscript fluorescence binding: yes minimum inhibition conc: no antibacterial activity NMR sat. transfer: E. coli assay: white pellet | white pellet | White pellet | White pellet | pKd [6]: 4.80; E. coli assay ([7]; Table 4): White pellet; MIC50 [2, 8]: > 1000 µg/mL; pKd [3]: 4.91; pKd [3, 12]: 4.91
15 | CN(C)c1ccc(/C=N/NC(=N)N)cc1 [Compound 1] | yes, bind paHO | + |  |  | > 160 µg/mL | > 160 µg/mL | >160 µg/mL | yes | white pellet | White pellet | White pellet | C. elegans assay ([5]; Table 2): yes; pKd ([6]; Table 3A): 4.52; E. coli assay biliverdin pigmentation ([7]; E. coli cells expressing nm-HO, cell pellet): −; E. coli assay ([7]; Table 4): White pellet; pKd ([3]; Table 3A, read-out: Fluorescence nm-HO Kd): 4.64; pKd ([3]; Table 4, target not named, values match nm-HO of Table 3A, read-out: Kd): 4.64
16 | O=C(NNC(=O)c1ccncc1)c1ccncc1 [Compound 24] |  |  |  |  |  |  |  | Alias: CD-18 (Compound 7 in manuscript) fluorescence binding: yes minimum inhibition conc: nd NMR sat. transfer: nd E. coli assay: green pellet | Alias: CD-18 (Compound 7 in manuscript) fluorescence binding: yes minimum inhibition conc: nd NMR sat. transfer: nd E. coli assay: green pellet | Green Pellet | Green Pellet | E. coli assay ([7]; Table 5): Green Pellet
17 | O=[N+]([O-])c1cccc(CN2CCNCC2)c1 [Compound 83] | yes, bind paHO | + | no antibacterial activity | no antibact activity |  |  |  |  |  |  |  | 
18 | CC(=O)Nc1ccc(/N=C/c2ccco2)cc1 [Compound 119] | do not bind paHO |  |  |  |  |  |  | yes |  |  |  | 
19 | CCN(CC)c1ccc(/C=N/n2nnnc2N)c(O)c1 [Compound 149] | do not bind paHO |  |  |  |  |  |  | yes |  |  |  | 
20 | O=C(c1ccco1)C12CN3CN(CN(C3)C1)C2 [Compound 133] |  |  |  |  |  | > 380 µg/mL | >380 µg/mL |  | Alias: CB-9 fluorescence binding: nd minimum inhibition conc: nd NMR sat. transfer: nd E. coli assay: green pellet | Green Pellet | Green Pellet | E. coli assay ([7]; Table 4): Green Pellet
21 | O=C(O)/C=C\C(=O)Nc1ccc(Nc2ccccc2)cc1 [Compound 75] |  |  |  |  | > 1000 µg/mL | > 1000 µg/mL | >1000 µg/mL | yes | white pellet | White pellet | White pellet | C. elegans [5]: no effect; pKd ([6]; Table 3A): 4.70; E. coli assay ([7]; Table 4): White pellet; pKd [3]: 4.81
22 | O=C(O)CSc1ncnc2ccccc12 [Compound 36] | binds paHO | + | no antibacterial activity | no antibact activity |  |  |  |  |  |  |  | 
23 | NC(=O)c1ccc(NC(=O)/C=C\C(=O)O)cc1Cl [Compound 8] |  |  |  |  | > 750 µg/mL | > 750 µg/mL | >750 µg/mL |  | green pellet | Green Pellet | Green Pellet | E. coli assay ([7]; Table 4): Green Pellet
24 | O=C(O)CN1C(=O)c2ccccc2C1=O [Compound 150] | yes, bind paHO | + | no antibacterial activity | no antibact activity |  |  |  | yes |  |  |  | MIC50 [2, 8]: > 1000 µg/mL
25 | CN1CCN(CCCn2cnc3c2c(=O)n(C)c(=O)n3C)CC1 [Compound 145] | Alias: CB-14 fluorescence binding: nd minimum inhibition conc: nd NMR sat. transfer: tested, ambiguous |  |  |  |  |  |  |  |  |  |  | 
26 | COc1ccc(C(=O)CCC(=O)O)c(C)c1 [Compound 59] | yes, bind paHO | + |  |  | > 1000 µg/mL | > 1000 µg/mL | >1000 µg/mL | yes |  |  |  | 
